From patent publication US20230192705A1, “SHP2 INHIBITORS, COMPOSITIONS AND USES THEREOF” (Betta Pharmaceuticals Co., Ltd, priority 2020, published 2023)

Molecular target: T1, SHP2 (Homo sapiens, UniProt Q06124)
T1 sequence (Q06124 1-593): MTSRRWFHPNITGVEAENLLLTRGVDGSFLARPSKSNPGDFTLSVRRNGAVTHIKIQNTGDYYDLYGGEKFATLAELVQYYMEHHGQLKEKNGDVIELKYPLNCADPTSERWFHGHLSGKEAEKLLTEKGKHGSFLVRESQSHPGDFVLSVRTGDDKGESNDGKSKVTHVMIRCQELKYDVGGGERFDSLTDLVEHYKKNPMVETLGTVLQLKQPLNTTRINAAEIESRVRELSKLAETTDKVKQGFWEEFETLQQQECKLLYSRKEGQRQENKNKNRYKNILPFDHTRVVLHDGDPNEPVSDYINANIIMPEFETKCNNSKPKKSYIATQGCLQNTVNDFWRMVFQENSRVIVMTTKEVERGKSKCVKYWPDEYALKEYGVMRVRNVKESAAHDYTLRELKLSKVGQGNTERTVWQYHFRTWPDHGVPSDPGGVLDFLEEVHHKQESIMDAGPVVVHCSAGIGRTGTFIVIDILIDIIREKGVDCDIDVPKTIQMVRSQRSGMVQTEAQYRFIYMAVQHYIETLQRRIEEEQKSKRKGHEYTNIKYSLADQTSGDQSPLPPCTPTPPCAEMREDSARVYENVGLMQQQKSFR
Assay: SHP2 allosteric inhibitor enzyme activity assay (DiFMUP fluorescence)
Assay type: biochemical
How it was run: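 SHP2 activated by 0.5 μM IRS1_pY1172(dPEG8)pY1222 peptide, 0.2 ng enzyme per well, 1 h at room temperature with compound (1 μM top, 3-fold series), then DiFMUP substrate 1 h. Buffer: 60 mM HEPES, 75 mM NaCl, 75 mM KCl, 0.05% BRIJ-35, 1 mM EDTA, 5 mM DTT. Fluorescence ex 340/em 450 nm; IC50 by variable-slope fit.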

For `CC1(C)C=C(c2n[nH]c3nc(N4CCC5(CC4)Cc4ccccc4[C@H]5N)[nH]c(=O)c23)c2ccc(Cl)nc2C1` [Example 161, (S)-6-(1-amino-1,3-dihydrospiro[indene-2,4′-piperidin]-1′-yl)-3-(2-chloro-7,7-dimethyl-7,8-dihydroquinolin-5-yl)-1,5-dihydro-4H-pyrazolo[3,4-d]pyrimidin-4-one], the IC50 (class symbols) was ≤ 20 nM.
With `CC1(C)C=C(c2n[nH]c3nc(N4CCC5(CC4)Cc4ccccc4[C@H]5N)[nH]c(=O)c23)c2cnn(CC(F)(F)F)c2C1` [Example 151, (S)-6-(1-amino-1,3-dihydrospiro[indene-2,4′-piperidin]-1′-yl)-3-(6,6-dimethyl-l-(2,2,2-trifluoroethyl)-6,7-dihydro-1H-indazol-4-yl)-1,5-dihydro-4H-pyrazolo[3,4-d]pyrimidin-4-one] the IC50 (class symbols) was ≤ 20 nM.
`Cc1ccc(C2(c3n[nH]c4nc(N5CCC6(CC5)CO[C@@H](C)[C@H]6N)[nH]c(=O)c34)CC2)cc1` [Example 300, 6-((3S,4S)-4-amino-3-methyl-2-oxa-8-azaspiro[4.5]decan-8-yl)-3-(1-(p-tolyl)cyclopropyl)-1,5-dihydro-4H-pyrazolo[3,4-d]pyrimidin-4-one] showed an IC50 (class symbols) of 20 to 60 nM.
With `N[C@@H]1c2ccccc2CC12CCN(c1nc3[nH]nc(C4(c5cccc6occc56)CC4)c3c(=O)[nH]1)CC2` [Example 80, (S)-6-(1-amino-1,3-dihydrospiro[indene-2,4′-piperidin]-1′-yl)-3-(1-(benzofuran-4-yl)cyclopropyl)-1,5-dihydro-4H-pyrazolo[3,4-d]pyrimidin-4-one] the IC50 (class symbols) was ≤ 20 nM.
`COc1cccc(C2(c3n[nH]c4nc(N5CCC6(CC5)CO[C@@H](C)[C@H]6N)[nH]c(=O)c34)CC2)c1` [Example 305, 6-((3S,4S)-4-amino-3-methyl-2-oxa-8-azaspiro[4.5]decan-8-yl)-3-(1-(3-methoxyphenyl)cyclopropyl)-1,5-dihydro-4H-pyrazolo[3,4-d]pyrimidin-4-one] showed an IC50 (class symbols) of 20 to 60 nM.
`Cn1ncc2c1CCC=C2c1n[nH]c2nc(N3CCC4(CC3)Cc3ccccc3[C@H]4N)[nH]c(=O)c12` [Example 131, (S)-6-(1-amino-1,3-dihydrospiro[indene-2,4′-piperidin]-1′-yl)-3-(1-methyl-6,7-dihydro-1H-indazol-4-yl)-1,5-dihydro-4H-pyrazolo[3,4-d]pyrimidin-4-one] was tested, and the IC50 (class symbols) was ≤ 20 nM.
`C[C@@H]1OCC2(CCN(c3nc4[nH]nc(C5(c6cccc(Cl)c6Cl)CC5)c4c(=O)[nH]3)CC2)[C@@H]1N` [Example 309, 6-((3S,4S)-4-amino-3-methyl-2-oxa-8-azaspiro[4.5]decan-8-yl)-3-(1-(2,3-dichlorophenyl)cyclopropyl)-1,5-dihydro-4H-pyrazolo[3,4-d]pyrimidin-4-one] showed an IC50 (class symbols) of 20 to 60 nM.
With `N[C@@H]1c2ccccc2CC12CCN(c1nc3[nH]nc(C4(c5ccc6ncccc6c5)CC4)c3c(=O)[nH]1)CC2` [Example 14, (S)-6-(1-amino-1,3-dihydrospiro[indene-2,4′-piperidin]-1′-yl)-3-(1-(quinolin-6-yl)cyclopropyl)-1,5-dihydro-4H-pyrazolo[3,4-d]pyrimidin-4-one] the IC50 (class symbols) was ≤ 20 nM.
With `N[C@@H]1c2cc(Cl)ccc2CC12CCN(c1nc3[nH]nc(C4(c5ccccc5)CC4)c3c(=O)[nH]1)CC2` [Example 194, (S)-6-(1-amino-6-chloro-1,3-dihydrospiro[indene-2,4′-piperidin]-1′-yl)-3-(1-phenylcyclopropyl)-1,5-dihydro-4H-pyrazolo[3,4-d]pyrimidin-4-one] the IC50 (class symbols) was ≤ 20 nM.
With `CC1(C)C=C(c2n[nH]c3nc(N4CCC5(CC4)Cc4ccccc4[C@H]5N)[nH]c(=O)c23)c2ccc(C#N)nc2C1` [Example 162, (S)-5-(6-(1-amino-1,3-dihydrospiro[indene-2,4′-piperidin]-1′-yl)-4-oxo-4,5-dihydro-1H-pyrazolo[3,4-d]pyrimidin-3-yl)-7,7-dimethyl-7,8-dihydroquinoline-2-carbonitrile] the IC50 (class symbols) was ≤ 20 nM.
`N[C@@H]1c2ccccc2CC12CCN(c1nc3[nH]nc(C4(c5ccc6nccnc6c5)CC4)c3c(=O)[nH]1)CC2` [Example 32, (S)-6-(1-amino-1,3-dihydrospiro[indene-2,4′-piperidin]-1′-yl)-3-(1-(quinoxalin-6-yl)cyclopropyl)-1,5-diliydro-4H-pyrazolo[3,4-d]pyrimidin-4-one] showed an IC50 (class symbols) of 20 to 60 nM.
`N[C@@H]1c2ccccc2CC12CCN(c1nc3[nH]nc(C4CCCc5ncccc54)c3c(=O)[nH]1)CC2` (stereo partly drawn) [Example 108, 6-((S)-1-amino-1,3-dihydrospiro[indene-2,4′-piperidin]-1′-yl)-3-(5,6,7,8-tetrahydroquinolin-5-yl)-1,5-dihydro-4H-pyrazolo[3,4-d]pyrimidin-4-one] gave an IC50 (numeric values) of 1.9 nM.
`N[C@@H]1c2ccccc2CC12CCN(c1nc3[nH]nc([C@H]4C[C@H]4c4ccccc4)c3c3nncn13)CC2` [Example 107, (S)-1′-(9-((1S,2R)-2-phenylcyclopropyl)-7H-pyrazolo[4,3-e][1,2,4]triazolo[4,3-c]pyrimidin-5-yl)-1,3-dihydrospiro[indene-2,4′-piperidin]-1-amine] was tested, and the IC50 (class symbols) was 20 to 60 nM.
With `N[C@@H]1c2ccccc2CC12CCN(c1nc3[nH]nc(C4(c5ccccc5)CC4(Cl)Cl)c3c(=O)[nH]1)CC2` (stereo partly drawn) [Example 7, 6-((S)-1-amino-1,3-dihydrospiro[indene-2,4′-piperidin]-1′-yl)-3-(2,2-dichloro-1-phenylcyclopropyl)-1,5-dihydro-4H-pyrazolo[3,4-d]pyrimidin-4-one] the IC50 (class symbols) was > 60 nM.
With `Nc1ccccc1C1(c2n[nH]c3nc(N4CCC5(CC4)Cc4ccccc4[C@H]5N)[nH]c(=O)c23)CC1` [Example 22, (S)-6-(1-amino-1,3-dihydrospiro[indene-2,4′-piperidin]-1′-yl)-3-(1-(2-aminophenyl)cyclopropyl)-1,5-dihydro-4H-pyrazolo[3,4-d]pyrimidin-4-one] the IC50 (class symbols) was ≤ 20 nM.
In the case of `C[C@@H]1OCC2(CCN(C3=NC4=NCCN4C(N)=C3C3(c4ccccc4)CC3)CC2)[C@@H]1N` [Example 266, (3S,4S)-8-(5-amino-6-(1-phenylcyclopropyl)-2,3-dihydroimidazo[1,2-a]pyrimidin-7-yl)-3-methyl-2-oxa-8-azaspiro[4.5]decan-4-amine], the IC50 (class symbols) is reported as > 60 nM.
With `N[C@@H]1c2ccccc2CC12CCN(c1nc3[nH]nc(C4(c5ccnc(N6CCC6)c5Cl)CC4)c3c(=O)[nH]1)CC2` [Example 66, (S)-6-(1-amino-1,3-dihydrospiro[indene-2,4′-piperidin]-1′-yl)-3-(1-(2-(azetidin-1-yl)-3-chloropyridin-4-yl)cyclopropyl)-1,5-dihydro-4H-pyrazolo[3,4-d]pyrimidin-4-one] the IC50 (class symbols) was ≤ 20 nM.
`C[C@@H]1OCC2(CCN(c3nc4[nH]nc(C5(c6ccnc(N)c6Cl)CC5)c4c(=O)[nH]3)CC2)[C@@H]1N` [Example 291, 3-(1-(2-amino-3-chloropyridin-4-yl)cyclopropyl)-6-((3S,4S)-4-amino-3-methyl-2-oxa-8-azaspiro[4.5]decan-8-yl)-1,5-dihydro-4H-pyrazolo[3,4-d]pyrimidin-4-one] gave an IC50 (class symbols) of 20 to 60 nM.
In the case of `N[C@@H]1c2ccccc2CC12CCN(c1nc3[nH]nc(C4(c5ccco5)CC4)c3c(=O)[nH]1)CC2` [Example 256, (S)-6-(1-amino-1,3-dihydrospiro[indene-2,4′-piperidin]-1′-yl)-3-(1-(furan-2-yl)cyclopropyl)-1,5-dihydro-4H-pyrazolo[3,4-d]pyrimidin-4-one], the IC50 (class symbols) is reported as ≤ 20 nM.
